Results: patent US20110003692A1, “HERBICIDALLY AND INSECTICIDALLY ACTIVE PHENYL-SUBSTITUTED PYRIDAZINONES” (BAYER CROPSCIENCE AG, priority 2008, published 2011)

Key:
[1] = system: eggs from the tobacco budworm (Heliotis virescens); assay: Heliothis virescens test (spray treatment); type: in vivo; conditions: application rate 500 g/ha, spray on soybean leaves, after 7 days
Method: • 78.0 parts by weight of acetone • 1.5 parts by weight of dimethylformamide Emulsifier: 0.5 part by weight of alkylaryl polyglycol ether
To produce a suitable preparation of active compound, 1 part by weight of active compound is mixed with the stated amounts of solvents and emulsifier, and the concentrate is diluted with emulsifier-containing water to the desired concentration. Soybean leaves (Glycine max.) are sprayed with an active compound preparation of the desired concentration and populated with eggs from the tobacco budworm (Heliotis virescens). After 7 days, the effect in % is determined. 100% means that all eggs have been killed, 0% means that no eggs have been killed.

Row | melting point | SMILES | effect in % (eggs killed) [1]
1 | – | CC(C)(C)n1ncc(O)c(-c2ccc(Cl)cc2Cl)c1=O [I-1-a-5] | at least 80%
2 | 176 °C | COc1cnn(C)c(=O)c1-c1ccc(Cl)c(Cl)c1 [I-1-h-1, 4-(3,4-dichlorophenyl)-5-methoxy-2-methyl-3(2H)-pyridazinone] | –
